In PubChem BioAssay AID743409 (Vanderbilt Specialized Chemistry Center, 2014):
Values joined by “and” are separate entries in the source; they are usually repeats but may differ in a detail not shown here. Identical values can stand only once. Active and inactive are the calls of the source. No rule for the calls is given here.

Each molecule was assayed against Phospholipase D2 (Homo sapiens) (UniProt O14939) (assay: inhibitors of cellular PLD2 activity, cell-based (AID 743409)). Details: cellular PLD2 isoenzyme activity, at 2 µM, hits give high values.
Sequence of Phospholipase D2 (Homo sapiens) (O14939 whole entry, looked up): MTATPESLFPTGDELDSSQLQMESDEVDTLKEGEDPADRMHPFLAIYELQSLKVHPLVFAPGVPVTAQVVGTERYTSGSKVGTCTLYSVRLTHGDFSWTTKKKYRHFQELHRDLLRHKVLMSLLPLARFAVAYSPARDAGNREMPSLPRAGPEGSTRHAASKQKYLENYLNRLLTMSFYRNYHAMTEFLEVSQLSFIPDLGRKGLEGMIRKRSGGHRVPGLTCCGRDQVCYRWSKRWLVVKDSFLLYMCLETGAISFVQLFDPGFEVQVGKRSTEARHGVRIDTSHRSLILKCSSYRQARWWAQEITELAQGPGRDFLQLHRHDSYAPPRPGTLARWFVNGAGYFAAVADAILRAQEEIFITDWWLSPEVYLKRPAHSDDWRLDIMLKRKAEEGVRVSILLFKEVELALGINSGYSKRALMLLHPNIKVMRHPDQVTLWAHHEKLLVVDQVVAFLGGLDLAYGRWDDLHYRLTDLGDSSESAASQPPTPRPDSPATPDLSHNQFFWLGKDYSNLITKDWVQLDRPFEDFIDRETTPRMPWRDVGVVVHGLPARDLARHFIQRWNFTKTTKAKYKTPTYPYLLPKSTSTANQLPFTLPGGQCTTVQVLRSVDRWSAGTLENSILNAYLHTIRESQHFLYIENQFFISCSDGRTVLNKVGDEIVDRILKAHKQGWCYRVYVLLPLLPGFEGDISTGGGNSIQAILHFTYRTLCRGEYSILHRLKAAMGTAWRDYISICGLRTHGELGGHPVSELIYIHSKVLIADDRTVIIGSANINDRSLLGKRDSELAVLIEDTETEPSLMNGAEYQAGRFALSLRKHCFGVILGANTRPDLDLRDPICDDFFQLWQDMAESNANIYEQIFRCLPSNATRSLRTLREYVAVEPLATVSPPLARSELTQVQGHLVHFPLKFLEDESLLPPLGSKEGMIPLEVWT

Structure (SMILES)	inhibition
O=C(NCCN1C=CC2(CC1)C(=O)NCN2Cc1cccnc1)c1cccc2nsnc12 (centres undefined)	4% (inactive)
O=C(NCCN1CCC2(CC1)C(=O)NCN2c1cncc(F)c1)c1cc2cc(F)ccc2[nH]1	15% (inactive)
O=C(NCCN1CCC2(CC1)C(=O)NCN2Cc1cccnc1)c1ccc2ccccc2n1	31% (inactive)
O=C(NCCN1CCC2(CC1)C(=O)NCN2c1ccnc(Cl)c1)c1ccc2ccccc2c1	11% (inactive)
O=C(NCCN1CCC2(CC1)C(=O)NCN2Cc1cccnc1)c1cc2ccccc2o1	73%
O=C(NCCN1CCC2(CC1)C(=O)NCN2c1cccnc1)c1cc(F)c(F)c(F)c1	0% (inactive)
O=C(NCCN1CCC2(CC1)C(=O)NCN2c1cncc(Br)c1)c1ccc2ccccc2c1	26% (inactive)
O=C(NCCN1CCC2(CC1)C(=O)NCN2Cc1cccnc1)c1cccc(F)c1	14% (inactive)
O=C(NCCN1CCC2(CC1)C(=O)NCN2Cc1cccnc1)c1cccc2cccnc12	42% (inactive)
O=C(NCCN1CCC2(CC1)C(=O)NCN2c1cccnc1)c1ccc(Br)cc1	0% (inactive)
O=C(NCCN1CCC2(CC1)C(=O)NCN2Cc1cccnc1)c1ccc(Cl)c(Cl)c1	63% (inactive)
Cc1ccc(S(=O)(=O)NCCN2CCC3(CC2)C(=O)NCN3Cc2cccnc2)cc1	10% (inactive)
Cc1nc2sc(C(=O)NCCN3CCC4(CC3)C(=O)NCN4Cc3cccnc3)c(N)c2c(C)c1C	8% (inactive)
O=C(NCCN1CCC2(CC1)C(=O)NCN2Cc1cccnc1)c1ccc(C(F)(F)F)cc1	5% (inactive)
O=C(NCCN1CCC2(CC1)C(=O)NCN2Cc1cccnc1)c1ccc(F)c(F)c1	22% (inactive)
O=C(NCCN1CCC2(CC1)C(=O)NCN2c1cncc(F)c1)c1ccc(F)cc1	3% (inactive)
O=C(NCCN1CCC2(CC1)C(=O)NCN2Cc1cccnc1)c1ccccc1F	0% (inactive)
O=C(NCCN1CCC2(CC1)C(=O)NCN2Cc1cccnc1)c1c[nH]c2ccccc12	23% (inactive)
COc1cc(C(=O)NCCN2CCC3(CC2)C(=O)NCN3Cc2cccnc2)cc(OC)c1OC	15% (inactive)
O=C(NCCN1CCC2(CC1)C(=O)NCN2Cc1cccnc1)c1ccc(Cl)cc1Cl	0% (inactive)
O=C(NCCN1CCC2(CC1)C(=O)NCN2Cc1cccnc1)[C@@H]1C[C@H]1c1ccccc1	20% (inactive)

Structure (SMILES)	inhibition
O=C(NCCN1CCC2(CC1)C(=O)NCN2Cc1cccnc1)c1ccc(Br)cc1	48% (inactive)
O=C(NCCN1CCC2(CC1)C(=O)NCN2c1cccnc1)c1ccc(F)cc1	2% (inactive)
O=C(NCCN1CCC2(CC1)C(=O)NCN2Cc1cccnc1)c1ccc(F)cc1F	0% (inactive)
O=C(NCCN1CCC2(CC1)C(=O)NCN2c1cncc(F)c1)c1ccc(Br)cc1	15% (inactive)
O=C(NCCN1CCC2(CC1)C(=O)NCN2Cc1cccnc1)c1c(Cl)cncc1Cl	3% (inactive)
O=C(NCCN1CCC2(CC1)C(=O)NCN2Cc1cccnc1)c1nccc2ccccc12	32% (inactive)
O=C(NCCN1CCC2(CC1)C(=O)NCN2Cc1cccnc1)c1cc2cc(F)ccc2[nH]1	100%
O=C(NCCN1CCC2(CC1)C(=O)NCN2Cc1cccnc1)c1cc2cccnc2[nH]1	19% (inactive)
Cc1cc(N2CNC(=O)C23CCN(CCNC(=O)c2ccc4ccccc4c2)CC3)ccn1	0% (inactive)
Cc1cc(Br)cnc1C(=O)NCCN1CCC2(CC1)C(=O)NCN2Cc1cccnc1	1% (inactive)
O=C(NCCN1CCC2(CC1)C(=O)NCN2Cc1cccnc1)c1c(F)ccc(Cl)c1F	18% (inactive)
Cn1cc(C(=O)NCCN2CCC3(CC2)C(=O)NCN3Cc2cccnc2)c2ccccc21	31% (inactive)
O=C(NCCN1CCC2(CC1)C(=O)NCN2c1cccnc1)c1cc2cc(F)ccc2[nH]1	12% (inactive)
O=C(NCCN1CCC2(CC1)C(=O)NCN2Cc1cccnc1)c1ccc2ccccc2c1Br	61%
O=C(NCCN1CCC2(CC1)C(=O)NCN2c1cccnc1)c1ccc2ccccc2c1	0% (inactive)
Cn1c(C(=O)NCCN2CCC3(CC2)C(=O)NCN3Cc2cccnc2)cc2ccccc21	14% (inactive)
O=C(NCCN1CCC2(CC1)C(=O)NCN2Cc1cccnc1)c1ccc(F)cc1	11% (inactive)
O=C(NCCN1CCC2(CC1)C(=O)NCN2Cc1cccnc1)c1cccs1	0%
O=C(NCCN1CCC2(CC1)C(=O)NCN2Cc1cccnc1)c1nc(-c2ccc(F)cc2)no1	17% (inactive)
O=C(NCCN1CCC2(CC1)C(=O)NCN2c1cncc(F)c1)c1ccc2ccccc2c1	18% (inactive)
O=C(NCCN1CCC2(CC1)C(=O)NCN2Cc1cccnc1)c1cc(F)cc(F)c1	4% (inactive)

Structure (SMILES)	inhibition
O=C(NCCN1CCC2(CC1)C(=O)NCN2c1ccc(C(F)(F)F)nc1)c1ccc2ccccc2c1	4% (inactive)
O=C(NCCN1CCC2(CC1)C(=O)NCN2Cc1cccnc1)c1ccc2c(c1)C(=O)NC2=O	0% (inactive)
O=C(NCCN1CCC2(CC1)C(=O)NCN2c1cncc(F)c1)c1cc(F)c(F)c(F)c1	2% (inactive)
O=C(NCCN1CCC2(CC1)C(=O)NCN2Cc1cccnc1)c1ccc(Cl)cc1F	18% (inactive)
O=C(NCCN1CCC2(CC1)C(=O)NCN2Cc1cccnc1)c1cccc(Cl)c1	21% (inactive)
O=C(NCCN1CCC2(CC1)C(=O)NCN2Cc1cccnc1)c1cc(F)c(F)c(F)c1	10% (inactive)
Cc1cc(C)c2cc(C(=O)NCCN3CCC4(CC3)C(=O)NCN4Cc3cccnc3)[nH]c2c1	35% (inactive)
O=C(NCCN1CCC2(CC1)C(=O)NCN2Cc1cccnc1)c1ccc2ccccc2c1	80%
O=C(NCCN1CCC2(CC1)C(=O)NCN2Cc1cccnc1)c1cc2ccccc2[nH]1	100%
O=C(NCCN1CCC2(CC1)C(=O)NCN2Cc1cccnc1)c1ccc2cc(F)ccc2c1	36% (inactive)
O=C(NCCN1CCC2(CC1)C(=O)NCN2Cc1cccnc1)c1ccnc2ccccc12	0% (inactive)
O=C(NCCN1CCC2(CC1)C(=O)NCN2Cc1cccnc1)c1ccc(SC(F)(F)F)cc1	8% (inactive)
O=C(NCCN1CCC2(CC1)C(=O)NCN2Cc1cccnc1)c1cccc(C(F)(F)F)c1	0% (inactive)
O=C(NCCN1CCC2(CC1)C(=O)NCN2c1cncc(F)c1)c1ccc(F)c(F)c1	0% (inactive)
O=C(NCCN1CCC2(CC1)C(=O)NCN2c1cccnc1)c1ccc(F)c(F)c1	7% (inactive)
O=C(NCCN1CCC2(CC1)C(=O)NCN2Cc1cccnc1)c1sc2ncccc2c1-n1cccc1	5% (inactive)
O=C(NCCN1CCC2(CC1)C(=O)NCN2c1ccnc(F)c1)c1ccc2ccccc2c1	15% (inactive)
O=C(NCCN1CCC2(CC1)C(=O)NCN2Cc1cccnc1)c1ccc(F)cc1C(F)(F)F	0% (inactive)
O=C(NCCN1CCC2(CC1)C(=O)NCN2Cc1cccnc1)c1ccc(F)cc1Cl	0% (inactive)

Same assay, conditions: cellular PLD2 isoenzyme activity, at 20 µM, hits give high values

Structure (SMILES)	inhibition
O=C(NCCN1CCC2(CC1)C(=O)NCN2Cc1ccccc1Br)c1ccc2ccccc2c1	100%
O=C(NCCN1CCC2(CC1)C(=O)NCN2Cc1ccccc1)c1ccc2ccccc2c1	99%
COc1cccc(C(=O)N2CNC(=O)C23CCN(CCNC(=O)c2ccc4ccccc4c2)CC3)c1	85%
O=C(NCCN1CCC2(CC1)C(=O)NCN2C(=O)C1CCC1)c1ccc2ccccc2c1	100%
O=C(NCCN1CCC2(CC1)NCNC2=O)c1ccc2ccccc2c1	22% (inactive)
O=C(NCCN1CCC2(CC1)C(=O)NCN2C(=O)c1cccc(F)c1)c1ccc2ccccc2c1	84%
O=C(NCCN1CCC2(CC1)C(=O)NCN2Cc1ccccc1Cl)c1ccc2ccccc2c1	100%
O=C(NCCN1CCC2(CC1)C(=O)NCN2C(=O)C1CC1)c1ccc2ccccc2c1	100%
O=C(NCCN1CCC2(CC1)C(=O)NCN2Cc1ccccc1F)c1ccc2ccccc2c1	65% and 100%
O=C(NCCN1CCC2(CC1)C(=O)NCN2Cc1cccc(Cl)c1)c1ccc2ccccc2c1	100%
O=C(NCCN1CCC2(CC1)C(=O)NCN2C(=O)c1ccccc1)c1ccc2ccccc2c1	82%
O=C(NCCN1CCC2(CC1)C(=O)NCN2CC1CC1)c1ccc2ccccc2c1	100%
O=C(NCCN1CCC2(CC1)C(=O)NCN2Cc1cccc2ccccc12)c1ccc2ccccc2c1	100%
O=C(NCCN1CCC2(CC1)C(=O)NCN2Cc1cccc(OC(F)(F)F)c1)c1ccc2ccccc2c1	46% (inactive)
O=C(NCCN1CCC2(CC1)C(=O)NCN2Cc1ccncc1)c1ccc2ccccc2c1	100%
O=C(NCCN1CCC2(CC1)C(=O)NCN2Cc1cccnc1)c1ccc2ccccc2c1	100%
O=C(NCCN1CCC2(CC1)C(=O)NCN2Cc1ccccn1)c1ccc2ccccc2c1	100%
O=C(NCCN1CCC2(CC1)C(=O)NCN2Cc1ccc(Cl)cc1)c1ccc2ccccc2c1	96%
